What all share (type): in vivo
The subject of experiment [1] is Echinochloa crus-galli (ECHCG). In words: Pre-emergence herbicidal activity, ECHCG. The conditions noted are these: 7 days after treatment. An excerpt: (§1) Selected compounds of the invention were screened at 200 PPM against Amaranthus retroflexus (AMARE). Echinochloa crus-galli (ECHCG). Kochia scoparia (KCHSC), and Selaria italica (SETIT).
(§2) Accordingly, PPO susceptible weed seeds were planted in 5″×5″ pots by quadrant containing custom field soil mix (Sandy loam with 4.7% OM, pH 7.0) and covered with a fine layer of the same soil. Compounds were formulated in 25% Acetone, 1% Crop oil concentrate (COC-Agridex), 0.1% Tween-20, and 2.5% Ammonium sulphate (AMS). Three replicate pots were treated with each compound. Treatment consisting of the above formulation excluding active compound was applied as a treatment control (TC). Pots were treated with the test compound solution in a laboratory spray chamber fitted with 8003 flat fan nozzles calibrated to deliver 187-200 L ha^−1 at 269 kPa. Compound was incorporated into the soil by simulating rainfall equivalent to 0.2 mm using the same track sprayer. Subsequently, pots were irrigated from the bottom until assessed for % growth and germination inhibition. Pots were placed back in the growth chamber and evaluated for % growth and germination inhibition compared to TC 7 days after treatment (DAT). Growth conditions are similar to the ones mentioned in POST emergence assay.
(§3) The data presented in Table 4 indicate a percentage control, where 100% control indicates complete inhibition of growth.

Experiment [2] concerns Amaranthus retroflexus (AMARE). In words: Pre-emergence herbicidal activity, AMARE. To be noted: 7 days after treatment.
Source text: as §1, §2, §3

The subject of experiment [3] is Setaria italica (SETIT). In words: Post-emergence herbicidal activity, SETIT. To be noted: 7 days after treatment. The procedure:
Selected compounds of the invention were screened at 100 PPM against Amaranthus retroflexus (AMARE), Setaria italica (SETIT), and Echinochloa crus-galli (ECHCG).
Accordingly, PPO susceptible weed seeds were sown in 5″×5″ pots by quadrant containing Miracle-Gro potting mix (Scotts Miracle-Gro Company, Marysville, OH. USA) and grown in a Conviron growth chamber with appropriate growth conditions (temperature of 26/22° C. with photoperiod 16/8 h light day/night and light intensity of 300 μmol m^−2 s^−1 supplemented by LED lamps). Relative humidity in the growth chamber was maintained at around 65%. Plants were grown until 2-4 leaf stage and thinned to 5-8 plants per quadrant per species.
(§4) Compounds were formulated in 25% Acetone, 1% Crop oil concentrate (COC-Agridex), 0.1% Tween-20, and 2.5% Ammonium sulphate (AMS). Three replicate pots were treated with each compound. Treatment consisting of the above formulation excluding active compound was applied as a treatment control (TC). Plants were treated with the test compound solution in a laboratory spray chamber fitted with 8003 flat fan nozzles calibrated to deliver 187-200 L ha^−1 at 269 kPa. Plants were placed back in the growth chamber and evaluated for % visual injury compared to TC 7 days after treatment (DAT). The data presented in Table 3 indicate a percentage control, where 100% control indicates complete inhibition of growth.
(§5) Selected compounds of the invention were screened at 100 PPM against Amaranthus retroflexus (AMARE), Echinochloa crus-galli (ECHCG), Kochia scoparia (KCHSC), and Setaria italica (SETIT).
(§6) Accordingly, PPO susceptible weed seeds were sown in 5″ 5″ pots by quadrant containing Miracle-Gro potting mix (Scotts Miracle-Gro Company, Marysville, OH, USA) and grown in a Conviron growth chamber with appropriate growth conditions (temperature of 26/22° C. with photoperiod 16/8 h light day/night and light intensity of […] supplemented by LED lamps). Relative humidity in the growth chamber was maintained at around 65%. Plants were grown until 2-4 leaf stage and thinned to 5-8 plants per quadrant per species.

Experiment [4] has as its system Echinochloa crus-galli (ECHCG). Kind of experiment: Post-emergence herbicidal activity, ECHCG. The conditions noted are these: 7 days after treatment. As to the method: (§7) Selected compounds of the invention were screened at 100 PPM against Amaranthus retroflexus (AMARE), Setaria italica (SETIT), and Echinochloa crus-galli (ECHCG). […]
as §4, with “growth. […]” for “growth.”

Experiment [5] concerns Kochia scoparia (KCHSC). In words: Pre-emergence herbicidal activity, KCHSC. The conditions noted are these: 7 days after treatment.
Source text: as §1, §2, §3

The test system of experiment [6] is Setaria italica (SETIT). In words: Pre-emergence herbicidal activity, SETIT. The conditions noted are these: 7 days after treatment.
Source text: as §1, §2, §3

Experiment [7] concerns Kochia scoparia (KCHSC). Kind of experiment: Post-emergence herbicidal activity, KCHSC. To be noted: 7 days after treatment, Table 3b. The procedure:
as §5, §6, §4

Experiment [8] deals with Amaranthus retroflexus (AMARE). Kind of experiment: Post-emergence herbicidal activity, AMARE. The conditions noted are these: 7 days after treatment. The procedure: as §7
as §4, with “growth. […]” for “growth.”

The values below come from patent US20250084044A1, “PROTOPORPHYRINOGEN OXIDASE INHIBITORS” (Enko Chem, Inc., priority 2022, published 2025).

As a reminder, the pest or weed control is how far the test organism was held down. Low values mean a weak effect, high ones a strong effect. On to `COC(=O)[C@@H](C)N1C(=O)C(F)(F)Oc2cc(F)c(-c3c(F)cc(F)c(F)c3F)cc21` [Compound 77, methyl (2R)-2-(2,2,7-trifluoro-3-oxo-6-(2,3,4,6-tetrafluorophenyl)-2,3-dihydro-4H-benzo[b][1,4]oxazin-4-yl)propanoate], for which the “Pre-emergence (200 ppm) ECHCG” value in experiment [1] is reported as 3%. Moreover, in experiment [2], the “Pre-emergence (200 ppm) AMARE” value is reported as 100%. For the same compound, in the experiment on Setaria italica (SETIT) [3] (100 ppm, Table 3b), the “Post-emergence (100 ppm) SETIT” value is reported as 98%. Moreover, the pest or weed control at 100 ppm in the experiment with Setaria italica (SETIT) [3] (Setaria italica, 168 h, 100 PPM, Table 3a) was 98%; in experiment [4] (Echinochloa crus-galli, 168 h, 100 PPM, Table 3a), 88%; in experiment [8] (Amaranthus retroflexus, 168 h, 100 PPM, Table 3a), 100%. For the same compound, the “Post-emergence (100 ppm) ECHCG” value in experiment [4] (100 ppm, Table 3b) is 88%. In the experiment with Kochia scoparia (KCHSC) [5], the “Pre-emergence (200 ppm) KCHSC” value worked out at 0%. In the experiment on Setaria italica (SETIT) [6], the “Pre-emergence (200 ppm) SETIT” value was 70%. Further, the “Post-emergence (100 ppm) KCHSC” value in the experiment on Kochia scoparia (KCHSC) [7] is on record as 100%. Also, the “Post-emergence (100 ppm) AMARE” value in experiment [8] (100 ppm, Table 3b) was determined as 100%.
